According to publication PMC6882468 (Journal of Enzyme Inhibition and Medicinal Chemistry, 2019):

Assays:
[1] = system: NF-κB activation in RAW264.7 cells; assay: Western blot of LPS-induced NF-κB activation; type: cell-based, Murine; conditions: RAW264.7, 2-h pre-treatment before LPS stimulation
Method: The cell in 96-well plates were treated as described above and then stimulated with LPS (200 ng/mL) for 24 h. The cells were harvested and lysed in an extraction lysis buffer (Beyotime Biotechnology, Shanghai, China) containing protease inhibitors. The protein concentration was determined using a BCA protein assay kit (Thermo Scientific, 23227). The whole cell lysates were separated by 10% sodium dodecyl sulphate-polyacrylamide gel electrophoresis and transferred to a nitrocellulose membrane. Each membrane was incubated with Tris-buffered saline (pH 7.6, containing 0.05% Tween-20 and 5% non-fat milk). The nitrocellulose membrane was incubated with the primary antibody against p-JNK1/2, JNK1/2, p-p38, p38, p-ERK1/2, ERK1/2, IκBa, NF-κB p65, COX-2, iNOS or β-Actin (Abcam, Cambridge, UK). Immunoreactive bands were detected by incubating with horseradish peroxidase-conjugated secondary antibodies, and visualised using enhanced chemiluminescence reagents (Bio-Rad, Hercules, CA).
Figure 5. Compound 6n inhibited LPS-induced NF-κB activation in RAW264.7 cells. […] The levels of NF-κB p65, IκB, and their phosphorylated forms were analysed using western blot.

[2] = system: DNFB-induced mouse model of allergic contact dermatitis; assay: DNFB-induced mouse model of allergic contact dermatitis (ear swelling); type: in vivo, Male ICR mice; conditions: for Swelling degree / Inhibition (%) of ear swelling: mice; for Swelling degree: Mean ± SD, n = 6; for Inhibition (%) of ear swelling: vs model group
Method: Male ICR mice (20 ± 2 g) were obtained from the Experimental Animal Centre of Anhui Medical University (Hefei, China). The mice reared in a pathogen-free setting (23 ± 2 °C, 55 ± 5% humidity) with free access to water and pelleted food throughout the experimental cycle. All experimental procedures performed in accordance with guide for the Care and Use of Laboratory Animals (National Research Council, 1996) and were approved by the Experimental Animal Ethics Committee of Anhui University of Chinese Medicine (Hefei, China). After 7 days acclimatisation, the mice were randomly divided into control group, ACD model group, dexamethasone positive control group and 20 compound groups, six in each group. The control group and the model group were given the same dose of the vehicle, the positive control group was given dexamethasone 0.5 mg/kg, and the test compound groups were given compound 5 mg/kg, all of which were given by intragastric administration and were administered once a day for 6 days. Except for the control group, the 50 µL of 1% DNFB (in acetone/olive oil 4:1) was administered to the stripped epidermis, and repeated the next day. After 6 days of drug treatment, 10 µL of 1% DNFB acetone olive oil solution was applied on both sides of the right ear to stimulate inflammation, and equivalent acetone olive oil solution was applied on the left ear for comparison. […] Calculation was carried out according to the following equations. Swelling degree (mg) = MR – ML Inhibitory rate of ear swelling (%)=((MR – ML) model – (MR – ML) treated)/(MR – ML) model ×100% MR=Average weight of the right ear slices;ML= Average weight of the left ear slices […] Dexamethasone (DEX) at a p.o. dose of 0.5 mg/kg was employed as the positive control. After the mice were sacrificed, the swelling degree and inhibition rate were calculated by weighing the same part of both ears.

[3] = 5 mg/kg intragastric once a day for 6 days, ear slices weighed 24 h after DNFB challenge
[4] = 5 mg/kg intragastric once a day for 6 days
[5] = positive control 0.5 mg/kg intragastric once a day for 6 days

Compound	Swelling degree [2, 3]	Inhibition (%) of ear swelling [2, 4]	further results
Cc1ccc(S(=O)(=O)/C=C/C#N)cc1 [Bay 11e7082, reference compound]	–	–	LPS-induced IκB phosphorylation [1]: markedly decreased; accumulation of NF-κB p65 subunit in the nucleus [1]: lowered; cytosolic IκB [1]: increased
CC(=O)c1ccccc1C(=O)N1CCN(Cc2ccc(Cl)cc2)CC1 [Compound 6a, 1–(2-(4–(4-Chlorobenzyl)piperazine-1-carbonyl)phenyl)ethan-1-one]	11.9 ± 3.7 mg	27.4%	–
COc1ccc(CN2CCN(C(=O)c3ccccc3C(C)=O)CC2)cc1 [Compound 6b, 1–(2-(4–(4-Methoxybenzyl)piperazine-1-carbonyl)phenyl)ethan-1-one]	12.0 ± 3.4 mg	26.8%	–
CC(=O)c1ccccc1C(=O)N1CCN(Cc2ccc(C#N)cc2)CC1 [Compound 6c, 4-((4–(2-Acetylbenzoyl)piperazin-1-yl)methyl)benzonitrile]	11.3 ± 4.0 mg	31.1%	–
CC(=O)c1ccccc1C(=O)N1CCN(Cc2ccc(C(F)(F)F)cc2)CC1 [Compound 6d, 1–(2-(4–(4-(Trifluoromethyl)benzyl)piperazine-1-carbonyl)phenyl)ethan-1-one]	12.5 ± 3.4 mg	23.8%	–
CC(=O)c1ccccc1C(=O)N1CCN(Cc2ccc([N+](=O)[O-])cc2)CC1 [Compound 6e, 1–(2-(4–(4-Nitrobenzyl)piperazine-1-carbonyl)phenyl)ethan-1-one]	13.0 ± 3.3 mg	20.7%	–
CC(=O)c1ccccc1C(=O)N1CCN(Cc2ccc(Cl)cc2Cl)CC1 [Compound 6g, 1–(2-(4–(2,4-Dichlorobenzyl)piperazine-1-carbonyl)phenyl)ethan-1-one]	12.9 ± 2.6 mg	21.3%	–
CC(=O)c1ccccc1C(=O)N1CCN(Cc2ccccc2Cl)CC1 [Compound 6h, 1–(2-(4–(2-Chlorobenzyl)piperazine-1-carbonyl)phenyl)ethan-1-one]	12.8 ± 4.1 mg	21.9%	–
CC(=O)c1ccccc1C(=O)N1CCN(Cc2cccc(Cl)c2)CC1 [Compound 6i, 1–(2-(4–(3-Chlorobenzyl)piperazine-1-carbonyl)phenyl)ethan-1-one]	12.0 ± 3.0 mg	26.8%	–
CC(=O)c1ccccc1C(=O)N1CCN(Cc2ccccc2)CC1 [Compound 6k, 1–(2-(4-Benzylpiperazine-1-carbonyl)phenyl)ethan-1-one]	13.0 ± 3.5 mg	20.7%	–
CC(=O)c1ccccc1C(=O)N1CCN(Cc2ccc(C)cc2)CC1 [Compound 6l, 1–(2-(4–(4-Methylbenzyl)piperazine-1-carbonyl)phenyl)ethan-1-one]	11.4 ± 3.2 mg	30.5%	–
COc1ccc(CN2CCN(C(=O)c3ccccc3C(C)=O)CC2)c(OC)c1 [Compound 6m, 1–(2-(4–(2,4-Dimethoxybenzyl)piperazine-1-carbonyl)phenyl)ethan-1-one]	11.6 ± 2.4 mg	29.3%	–
COc1cccc(CN2CCN(C(=O)c3ccccc3C(C)=O)CC2)c1 [Compound 6o, 1–(2-(4–(3-Methoxybenzyl)piperazine-1-carbonyl)phenyl)ethan-1-one]	13.0 ± 4.4 mg	20.7%	–
CC(=O)c1ccccc1C(=O)N1CCN(Cc2ccc3c(c2)OCO3)CC1 [Compound 6p, 1–(2-(4-(Benzo[d][1,3]dioxol-5-ylmethyl)piperazine-1-carbonyl)phenyl)ethan-1-one]	11.0 ± 3.2 mg	32.9%	in vivo inhibitory activity, in words ([2]; p.o. 5 mg/kg, p < 0.01): significant inhibitory activity
CC(=O)c1ccccc1C(=O)N1CCN(Cc2ccc3c(c2)OCCO3)CC1 [Compound 6q, 1–(2-(4-((2,3-Dihydrobenzo[b][1,4]dioxin-6-yl)methyl)piperazine-1-carbonyl)phenyl)ethan-1-one]	13.3 ± 2.6 mg	18.9%	–
CC(=O)c1ccccc1C(=O)N1CCN(Cc2nc(C)c(C)nc2C)CC1 [Compound 6r, 1–(2-(4-((3,5,6-Trimethylpyrazin-2-yl)methyl)piperazine-1-carbonyl)phenyl)ethan-1-one]	10.8 ± 3.5 mg	34.1%	–
CC(=O)c1ccccc1C(=O)N1CCN(Cc2ccncc2)CC1 [Compound 6s, 1–(2-(4-(Pyridin-4-ylmethyl)piperazine-1-carbonyl)phenyl)ethan-1-one]	12.9 ± 3.4 mg	21.3%	–
C[C@@H]1C[C@H]2[C@@H]3CCC4=CC(=O)C=C[C@]4(C)[C@@]3(F)[C@@H](O)C[C@]2(C)[C@@]1(O)C(=O)CO [DEX, Dexamethasone, reference compound]	–	–	Inhibition (%) of ear swelling [2, 5]: 51.8%; Swelling degree [2, 5]: 7.9 ± 3.0 mg
